Experimental data: paper PMC7391726, “Fatty acid mimetic PBI-4547 restores metabolic homeostasis via GPR84 in mice with non-alcoholic fatty liver disease” (Scientific Reports, 2020)

What was measured:
PPARα = molecular target: T1, PPARα (Homo sapiens, UniProt Q07869); experiment: LanthaScreen TR-FRET competitive binding assay, PPARα LBD; settings: Cheng-Prusoff; read-out: Ki inhibition constant, PPARα LBD
T1 construct: glutathione S-transferase (GST)-tagged human PPAR-LBD; purchased Fisher Scientific
T1 sequence (Q07869 239-466 limits assumed): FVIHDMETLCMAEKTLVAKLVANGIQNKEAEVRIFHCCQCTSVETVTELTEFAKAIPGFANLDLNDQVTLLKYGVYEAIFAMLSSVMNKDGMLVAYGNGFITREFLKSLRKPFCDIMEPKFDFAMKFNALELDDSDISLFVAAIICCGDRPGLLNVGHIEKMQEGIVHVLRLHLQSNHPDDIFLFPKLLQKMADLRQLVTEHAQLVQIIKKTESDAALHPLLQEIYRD
Source text: The peroxisome proliferator-activated receptors (PPARs), PPARα, PPARδ, and PPARγ are ligand-dependent transcription factors regulated by FAs, including MCFAs, which control expression of several key metabolism-associated genes. We thus characterized the binding and transcriptional activity of PBI-4547 to these receptors. A LanthaScreen TR-FRET competitive binding assay was used to determine the binding affinity of PBI-4547 in comparison to the full control agonists GW7647 (PPARα), GW0742 (PPARδ), and rosiglitazone (PPARγ).
The LanthaScreen time-resolved fluorescence resonance energy transfer (TR-FRET) PPARα, PPARδ and PPARγ competitive binding assay (Fisher Scientific) was performed according to the manufacturer’s protocol. […] The FRET signal was measured using an Infinite M1000 microplate reader by excitation at 332 nm and emission at 520 nm for fluorescein and 490 nm for terbium. Competitive ligand binding to PPAR is detected by a test compound’s ability to displace the Fluormone pan-PPAR Green from the LBD, which results in a decrease of the 520 nm/490 nm TR-FRET ratio. The inhibition constant (Ki) of the competitor ligand was calculated by applying the Cheng-Prusoff equation.

GPR120 = molecular target: T2, GPR120 (Homo sapiens, UniProt Q5NUL3); experiment: BRET β-arrestin-2 recruitment to GPR120-GFP10 in HEK293 cells; format: cell-based; settings: Rluc8-β-arrestin-2 / GPR120-GFP10
T2 construct: expressed in transfected cells; host or cells: HEK293
T2 sequence (Q5NUL3 1-361): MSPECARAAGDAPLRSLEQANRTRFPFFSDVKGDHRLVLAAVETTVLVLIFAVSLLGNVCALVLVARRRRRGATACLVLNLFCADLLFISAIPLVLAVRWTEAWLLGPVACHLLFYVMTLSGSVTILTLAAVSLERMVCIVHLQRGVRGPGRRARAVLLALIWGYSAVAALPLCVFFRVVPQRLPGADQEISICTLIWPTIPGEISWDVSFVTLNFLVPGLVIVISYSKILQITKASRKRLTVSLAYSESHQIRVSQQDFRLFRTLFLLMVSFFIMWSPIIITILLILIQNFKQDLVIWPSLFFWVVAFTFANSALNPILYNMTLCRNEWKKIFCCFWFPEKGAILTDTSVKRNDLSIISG
Method: Figure 1 PBI-4547 binding and activity on GPR84, GPR40, GPR120, and PPAR receptors. (A) Chemical structure of PBI-4547. (B) Gi pathway activation was monitored in HEK293 cells transfected with GPR84 and the Gαi2 activation biosensor. Cells were co-treated with […] sodium decanoate and increasing concentrations of PBI-4547, and BRET variation compared with vehicle was measured. (C) β-arrestin 2 recruitment to activated GPR120 receptor was monitored in HEK293 cells transfected with RLuc8-β-arrestin 2 and GPR120-GFP10. (D) Cells transfected with GPR40 and Gαq or Gαi2 activation biosensor were exposed to increasing concentrations of PBI-4547 or to 500 µM of sodium decanoate, and BRET variation compared with vehicle was measured. Cells were exposed to increasing concentrations of PBI-4547 or to 100 µM of GW9508, and BRET variation compared with vehicle was measured. […] Data in (B–D) are expressed as means ± SEM of 4–5 experiments; data in (E,F) are from a representative experiment from a total of 3 to 4 independent experiments. […]
BRET measurements in transiently transfected HEK293 cells were performed as previously described. Ligands were incubated with cells at room temperature for 10 min (G protein biosensors) or 25 min (β-arrestin/GPR120) before collecting BRET[2] readings between Rluc8 and GFP10.

## CCCCCc1cc(CCCCC)cc(CC(=O)[O-])c1.[Na+] [PBI-4547, 2-[3,5-dipentylphenyl]acetate sodium salt]
PPARα
  Ki: 0.489 µM
GPR120
  EC50: 48 µM
